Where two headings read alike, the source gives them in different places.
System: Phytophthora infestans
Type: in vivo
Conditions: tomato (Patio) seedling, foliage application
[1] = concentration of present compound 50 ppm
[2] = concentration of present compound 200 ppm

COc1ccc(C(=O)NCC2CCCCC2)cc1F [present compound 7, N-(cyclohexylmethyl)-3-fluoro-4-methoxybenzamide]
Control value [1]: ++ (40% or more and less than 60% of the lesion spot area on an untreated plant.) | Control value [2]: ++++ (Less than 20% of the lesion spot area on an untreated plant.)

COc1c(F)cc(C(=O)NCC2CCCCC2)cc1F [present compound 9, N-(cyclohexylmethyl)-3,5-difluoro-4-methoxybenzamide]
Control value [1]: ++++ (Less than 20% of the lesion spot area on an untreated plant.) | Control value [2]: ++++ (Less than 20% of the lesion spot area on an untreated plant.)

Reference: patent US20100137445A1, “PLANT DISEASE CONTROL AGENT, AND PLANT DISEASE CONTROL METHOD” (SUMITOMO CHEMICAL COMPANY ,LIMITED, priority 2007, published 2010)
